This is an account of results in patent publication US20050095299A1, “Controlled release analgesic suspensions” (priority 2003, published 2005).

The assay can be described thus: Therapeutic duration of action of an immediate release dose (from dosing instructions in labeling). Format: in vivo. An excerpt:
As used herein, “ATDAIRD” shall mean the average therapeutic duration of action of an effective immediate release dose” of a particular active ingredient. […] The therapeutic duration of action of a particular active ingredient can readily be determined from the dosing instructions in the labeling for immediate release products containing that particular active ingredient.

With `COc1ccc2cc([C@H](C)C(=O)O)ccc2c1` [naproxen], the “ATDAIRD (average therapeutic duration of action of an effective immediate release dose)” value stood at 10 h.
For the compound `CC(C)Cc1ccc(C(C)C(=O)O)cc1` (stereo not drawn) [ibuprofen, 2-(4-isobutylphenyl)-propionic acid], the “ATDAIRD (average therapeutic duration of action of an effective immediate release dose)” value was found to be 5 h.
The same measure for `CC(C(=O)O)c1cccc(C(=O)c2ccccc2)c1` (stereo not drawn) [ketoprofen]: 5 h.
